How the values were obtained:
IL-6 mRNA = assay: Ocular IL-6 mRNA by quantitative real-time PCR in CEC dry eye mice; type: in vivo, C57BL6 mice; details: CEC 14 days, then topical PDSP for 5 days
Method: (§1) Dry eye is associated with abnormalities in the pre-corneal tear film and subsequent inflammatory changes in the entire ocular surface including the adnexa, conjunctiva and cornea. (see, Hessen et al., “Dry eye: An Inflammatory Ocular Disease,” J. Ophthalmic Vis. Res., 2014, 9(2): 240-250). Therefore, the effects of PDSPs in corneal inflammatory responses were next examined. Briefly, C57BL6 mice were housed in CEC for 14 days (Day 0) and then treatment with PDSP or vehicle were performed for additional 5 days (Day 5). Then, mRNA levels for inflammatory factors were evaluated by quantitative real-time PCR.
(§2) The total RNA was extracted from cells using TRIzol (Invitrogen) and treated with RNase free DNase I (Qiagen, Santa Clarita, CA) to remove genomic DNA and then purified with an RNA purification kit (Dynabeads; Invitrogen). […] Quantitative real-time PCR was performed in a GeneAmp 7700 sequence detection system (Applied Biosystems, Foster City, CA). […] All determinations were measured in triplicate. The cycle threshold (Ct) values corresponded to the PCR cycle number at which fluorescence emission in real time reaches a threshold above the base-line emission were analyzed using GeneAmp 7700 SDS software. The Ct value of the PCR product of interest and a control mRNA (GAPDH) were then used to calculate relative quantities of mRNA between samples.

IL-1β mRNA = assay: Ocular IL-1β mRNA by quantitative real-time PCR in CEC dry eye mice; type: in vivo, C57BL6 mice; details: CEC 14 days, then topical PDSP for 5 days
Method: as §1, §2

TNF-α mRNA = assay: Ocular TNF-α mRNA by quantitative real-time PCR in CEC dry eye mice; type: in vivo, C57BL6 mice; details: CEC 14 days, then topical PDSP for 5 days
Method: as §1, §2

MMP-9 activity = MMP-9 activity by gelatin zymography in NaCl-treated corneal epithelial cells; type: cell-based, rabbit; details: PDSP pretreatment 20 hours, then hyperosmotic medium (463 mOsM) 24 hours
Method: Limbal stem cells were isolated from 6-month-old New Zealand white rabbits and continuously cultivated for 14 days by DMEM/F-12 basal medium based cell-suspension culture to achieve corneal-liked epithelial cell differentiation as previously described (Ho et al., 2013). To induce ROS or MMP-9 activity caused by hyperosmotic stress, cells were incubated overnight in hypertonic media (463 mOsm) achieved by addition of 90 mM NaCl. Cells cultured in DMEM/F-12 basal medium (309 mOsm) was used as negative control. To detect the preventive effect on hyperosmotic stress-induced ROS or MMP-9 activity, cells were pretreated with 10 μM PDSP for 20 hours before the treatment of NaCl.
To detect MMP-9 activity, 10 μL of culture medium was used to perform gelatin zymography as previous described method (Li et al., 2004). The band intensity was evaluated in zymography with a model GS-700 imaging densitometer (Bio-Rad Laboratories, Hercules, Calif.) and analyzed using Labworks 4.0 software.
To investigate the effect of PDSP on hyperosmotic stress-induced MMP-9 expression in corneal epithelial cells, cells were pretreated with the PDSP or control peptide (ConP) for 20 hours and then exposed the cells to hyperosmotic medium (463 mOsM) for another 24 hours. […] However, the PDSP pretreatment repressed the MMP-9 mRNA expression by a factor of 2-fold.

[1] = test system: goblet cells in the conjunctiva; assay: PAS staining of conjunctival goblet cells in CEC dry eye mice; type: in vivo, C57BL/6 mice; details: CEC 14 days, then eye drop for 5 days; vehicle 37±1.1; non-stressed 58±3.1
Method: Reduced mucin production could result from reduced goblet cells. […] Briefly, C57BL6 mice were housed in CEC for 14 days and then treated with PDSP or vehicle for additional 5 days. Non-stressed eyes are included as non-stressed controls (NS).
Dry eye was induced by placing mice in a controlled environment chamber (CEC) as previously described (Barabino et al., 2005). Briefly, mice placed in the CEC were exposed to a relative humidity (RH)<25%, temperature of 20 to 22° C., and airflow of 15 L/min, 12 hours per day. Non-stressed (NS) mice without stress-induced dry eye were kept in a normal environment (RH >50%, no air flow, temperature of 21-23° C.) for the same duration. Corneal fluorescein staining and
After animals were euthanized, eyes were surgically excised, fixed in 10% formalin, paraffin embedded, and cut into 5-μm sections. […] PAS-positive goblet cells in the conjunctiva were measured in five sections from each eye.

[2] = test system: GSH in rabbit corneal epithelial cells; assay: Glutathione (GSH) level (OPA probe) in NaCl-treated corneal epithelial cells; type: cell-based; details: 10 μM PDSP, isotonic medium, compared to untreated
Method: We therefore examined the effects of PDSP on the intracellular ROS and GSH levels in NaCl-treated (HOP) rabbit corneal epithelial cells. Briefly, rabbit corneal epithelial cells were pretreated with 10 μM PDSP or a negative control peptide (ConP) for 20 hours, followed by treatment with NaCl to induce hyperosmotic stress. After NaCl treatment for another 24 hours, cells were assessed for ROS using a 2′,7′-dichlorodihydrofluorescein diacetate (H2DCFDA) probe, which is an ROS indicator dye. H2DCFDA can diffuse into cells, where its acetate ester linkages are cleaved by intracellular esterases and be oxidized by ROS, which converts the nonfluorescent dichlorodihydrofluorescein diacetate (H2DCFDA) to highly fluorescent […] (DCF).
Limbal stem cells were isolated from 6-month-old New Zealand white rabbits and continuously cultivated for 14 days by DMEM/F-12 basal medium based cell-suspension culture to achieve corneal-liked epithelial cell differentiation as previously described (Ho et al., 2013). […]
The GSH levels were quantified using a Glutathione Assay Kit (BioVision Research Products, Mountain View, Calif.) according to the manufacturer's recommendations. […] The fluorescence was read at 340 nm for excitation and 420 nm for emission on a SPECTRAmax GEMINI XS fluorescence microplate spectrophotometer (Molecular Devices, Sunnyvale, Calif.).

PDSP: 29mer, residues 93-121 of human PEDF: SLGAEQRTESIIHRALYYDLISSPDIHGT (SEQ ID NO:4) (listed as Homo sapiens)
repression of ocular IL-6 mRNA expression compared to vehicle-treated group (IL-6 mRNA): 2.0 fold | repression of ocular IL-1β mRNA expression compared to vehicle-treated group (IL-1β mRNA): 2.4 fold | repression of ocular TNF-α mRNA expression compared to vehicle-treated group (TNF-α mRNA): 1.9 fold | repression of MMP-9 activity (gelatin zymography) (MMP-9 activity): 3 fold | conjunctival goblet cell counts (PAS-positive cells) [1]: 46±3.8 | GSH level without HOP stress (peptide alone) [2]: slight increase

From US11760784B2, “Compositions comprising PEDF-derived short peptides and uses thereof” (BRIM Biotechnology, Inc., priority 2016, dated 2023)
